Patent US20080200475A1 (Pfizer Inc., priority 2005, published 2008)
Several values for one entry are separate records, joined by “and”; a condition that tells them apart may be missing. Equal values may be shown once.

Target: T1, Human P2Y12 (Homo sapiens, UniProt Q9H244)
T1 construct: expressed in transfected cells; host or cells: HEK cells (membrane preparation)
Experiment: [^33P]-2MeS-ADP Binding to Recombinant Human P2Y12 Membranes (Assay 3)
Conditions: for inhibition at 10 µM / % Inhibition, [^33P]-2MeS-ADP Binding to Recombinant Human P2Y12 Membranes (Assay 3): highest concentration tested 10 μM; for IC50 / Ki: membranes of HEK cells transfected with P2Y12, competition with ^33P 2MeS-ADP, multiple lines = multiple runs; for inhibition at 1 µM: highest concentration tested 1 μM
Protocol: 3. Human P2Y12 Recombinant Cell Membrane Binding Assay with ^33P 2MeS-ADP.
The ability of a test compound to bind to the P2Y12 receptor was evaluated in a recombinant cell membrane binding assay. In this competitive binding assay, the test compound competed against a radiolabelled agonist for binding to the P2Y12 receptor, expressed on the cell membrane. Inhibition of binding of the labeled material was measured and correlated to the amount and potency of the test compound. Data from this assay are presented in Table F. This binding assay is a modification of the procedure in Takasaki, J. et. al, Mol. Pharmacol., 2001, Vol. 60, pg. 432.
HEK cells were transfected with the pDONR201P2Y12 vector and cultured in MEM with GlutaMAX I, Earle's salts, 25 mM HEPES (Gibco #42360-032) containing 10% dialyzed FBS (Gibco #26400-044), 100 μM nonessential amino acids (Gibco #11140-050), 1 mM sodium pyruvate (Gibco #11360-070), 0.05% geneticin (Gibco #10131-027), 3 μg/mL blasticidin (Fluka brand from Sigma #15205), and 0.5 μg/mL puromycin (Sigma #P-8833).
Confluent cells were washed once with cold DPBS (Gibco #14190-136). Fresh DPBS was added and the cells were scraped and centrifuged at 500×g for 5 minutes at 4° C. The cell pellets were resuspended in TEE buffer (25 mM Tris, 5 mM EDTA, 5 mM EGTA) containing 1 protease inhibitor cocktail tablet (Roche #1 873 580) per 50 mL (called TEE+Complete) and can be flash frozen at this point.
In one embodiment, frozen cell pellets were used to prepare the membranes. In that embodiment, the frozen cell pellets were thawed on ice. In another embodiment, cell pellets may be used without flash freezing before moving on to the next step.
Cell pellets were resuspended in TEE buffer+Complete and homogenized in a glass dounce for 12 strokes. The cell suspension was centrifuged at 500×g for 5 minutes at 4° C. The supernatant was saved and centrifuged at 20,000×g for 20 minutes at 4° C. This supernatant was discarded and the cell pellet resuspended in TEE buffer+Complete and homogenized in a glass dounce for 12 strokes. This suspension was centrifuged at 20,000×g for 20 minutes at 4° C. and the supernatant discarded. The pellet was resuspended in assay buffer (50 mM Tris, 100 mM NaCl, 1 mM EDTA) containing one protease inhibitor cocktail tablet per 50 mL, and can be flash frozen as 1 mL aliquots at this point.
[…] A 1 mM DMSO intermediate stock was made in a dilution plate and from this the seven dilutions were made to 5× the final concentration in assay buffer containing 0.02% BSA.
To a polypropylene assay plate (Costar #3365) the following were added: a) 30 μL of assay buffer containing one protease inhibitor cocktail tablet per 50 mL; b) 30 μL of 1 nM ^33P 2MeS-ADP made in assay buffer containing 0.02% BSA and 12.5 mg/mL ascorbic acid; 30 μL of cold 1.5 μM 2MeS-ADP for the positive control wells, or assay buffer containing 0.02% BSA and 12.5 mg/mL ascorbic acid for the negative control wells, or 5× drug dilution; and 60 μL of 1 ug/well membranes.
The plates were incubated at room temperature for 1 hour. The reaction was stopped using a cell harvester to transfer the reaction mixture onto GF/B UniFilter plates (Perkin Elmer #6005177), and washed three times with wash buffer (50 mM Tris), filtering between each wash. The filter plates were dried for approximately 20 minutes in an oven at 50° C. Back seals were adhered to the filter plates and 25 uL of Microscint 20 scintillation fluid (Perkin Elmer #6013621) were added. The filter plates were sealed, shaken for 30 minutes, and counted on a Top Count. Data were analyzed using a four-parameter curve fit with a fixed minimum and maximum experimentally defined as the average positive and negative controls on each plate, and with a hill slope equal to one. […]

T1 sequence (Q9H244 whole entry): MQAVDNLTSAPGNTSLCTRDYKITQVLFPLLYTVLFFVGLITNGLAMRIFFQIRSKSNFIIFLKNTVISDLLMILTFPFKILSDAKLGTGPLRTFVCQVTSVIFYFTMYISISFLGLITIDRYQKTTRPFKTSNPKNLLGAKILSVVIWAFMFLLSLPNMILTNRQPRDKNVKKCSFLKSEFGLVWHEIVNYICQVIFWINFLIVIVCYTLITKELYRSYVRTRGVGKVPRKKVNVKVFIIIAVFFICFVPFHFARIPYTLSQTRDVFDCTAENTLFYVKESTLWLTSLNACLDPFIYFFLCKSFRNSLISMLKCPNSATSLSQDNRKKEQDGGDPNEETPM

Row | Structure (SMILES) | inhibition at 10 µM | IC50 | Ki | % Inhibition, [^33P]-2MeS-ADP Binding to Recombinant Human P2Y12 Membranes (Assay 3) | inhibition at 1 µM
1 | CCc1cc2c(N3CCN(C(=O)c4ccc(-c5ccccc5)cc4)CC3)nc(NC(=O)c3cccnc3)nc2s1 [Example 29, N-{4-[4-(Biphenyl-4-carbonyl)piperazin-1-yl]-6-ethylthieno[2,3-d]pyrimidin-2-yl}nicotinamide] | 89% | 0.078 µM | 0.043 µM | – | –
2 | CCc1cc2c(N3CCN(C(=O)c4ccc(-c5ccccc5)cc4)CC3)nc(NC(=O)C3OC(OC)[C@@H]4OC(C)(C)O[C@H]34)nc2s1 (stereo partly drawn) [Example 31, (7R,8S)-6-Methoxy-2,2-dimethyltetrahydrofuro[3,4-d][1,3]dioxole-4-carboxylic acid{4-[4-(biphenyl-4-carbonyl)piperazin-1-yl]-6-ethylthieno[2,3-d]pyrimidin-2-yl}amide] | 76.7% | 0.345 µM and 0.678 µM | 0.189 µM and 0.329 µM | 72.4% | –
3 | CCc1cc2c(N3CCN(C(=O)c4ccc(-c5ccccc5)cc4)CC3)nc(NC(=O)c3ccccn3)nc2s1 [Example 33, {4-[4-(Biphenyl-4-carbonyl)piperazin-1-yl]-6-ethylthieno[2,3-d]pyrimidin-2-yl}picolinamide] | 87.9% | 0.0389 µM | 0.021 µM | – | –
4 | CCc1cc2c(N3CCN(C(=O)c4ccc(-c5ccccc5)cc4)CC3)nc(NC(=O)c3ccncc3)nc2s1 [Example 34, {4-[4-(Biphenyl-4-carbonyl)piperazin-1-yl]-6-ethylthieno[2,3-d]pyrimidin-2-yl}isonicotinamide] | 74.8% | 0.582 µM | 0.328 µM | – | –
5 | CCc1cc2c(N3CCN(C(=O)c4ccc(-c5ccccc5)cc4)CC3)nc(NC(=O)[C@H](COC(C)(C)C)NC(=O)OCc3ccccc3)nc2s1 [Example 35, Benzyl (1-{4-[4-(biphenyl-4-carbonyl)piperazin-1-yl]-6-ethylthieno[2,3-d]pyrimidin-2-ylcarbamoyl)-2-tert-butoxyethyl)carbamate] | 53.9% | 2.7 µM | 1.31 µM | – | –
6 | CCc1cc2c(N3CCN(C(=O)c4ccc(-c5ccccc5)cc4)CC3)nc(NC(=O)CCO)nc2s1 [Example 36, N-{4-[4-(Biphenyl-4-carbonyl)piperazin-1-yl]-6-ethylthieno[2,3-d]pyrimidin-2-yl}-3-hydroxypropionamide] | 94% | 0.067 µM | 0.037 µM | – | –
7 | CCc1cc2c(N3CCN(C(=O)c4ccc(-c5ccccc5)cc4)CC3)nc(NC(=O)CO)nc2s1 [Example 37, N-{4-[4-(Biphenyl-4-carbonyl)piperazin-1-yl]-6-ethylthieno[2,3-d]pyrimidin-2-yl}-b-hydroxyacetamide] | – | 0.0493 µM | 0.024 µM | – | 84.5%
8 | CCc1cc2c(N3CCN(C(=O)c4ccc(-c5ccccc5)cc4)CC3)nc(NC(=O)CCC(=O)O)nc2s1 [Example 38, N-{4-[4-(Biphenyl-4-carbonyl)piperazin-1-yl]-6-ethylthieno[2,3-d]pyrimidin-2-yl}succinamic acid] | – | 0.013 µM | 0.008 µM | – | 88%
9 | CCc1cc2c(N3CCN(C(=O)c4ccc(-c5ccccc5)cc4)CC3)nc(NC(=O)[C@@H]3CCCN3)nc2s1 [Example 39, (S)-Pyrrolidine-2-carboxylic Acid{4-[4-(Biphenyl-4-carbonyl)piperazin-1-yl]-6-ethylthieno[2,3-d]pyrimidin-2-yl}amide] | 81% | 0.179 µM | 0.087 µM | – | –
10 | CCc1cc2c(N3CCN(C(=O)c4ccc(-c5ccccc5)cc4)CC3)nc(NC(=O)[C@H]3CCCN3)nc2s1 [Example 40, (R)-Pyrrolidine-2-carboxylic acid{4-[4-(biphenyl-4-carbonyl)piperazin-1-yl]-6-ethylthieno[2,3-d]pyrimidin-2-yl}amide] | 75.6% | 0.403 µM | 0.227 µM | – | –
11 | CCc1cc2c(N3CCN(C(=O)c4ccc(-c5ccccc5)cc4)CC3)nc(NC(=O)CN)nc2s1 [Example 41, 2-Amino-N-{4-[4-(biphenyl-4-carbonyl)piperazin-1-yl]-6-ethylthieno[2,3-d]pyrimidin-2-yl}acetamide] | 85% | 0.156 µM | 0.085 µM | – | –
12 | CCOC(=O)CCNC(=O)Nc1nc(N2CCN(C(=O)CC(F)(F)F)CC2)c2cc(CC)sc2n1 [Example 46, Ethyl N-[({6-ethyl-4-[4-(3,3,3-trifluoropropanoyl)piperazin-1-yl]thieno[2,3-d]pyrimidin-2-yl}amino)carbonyl]-beta-alaninate] | – | 6.88 µM and 4.16 µM | 3.82 µM and 2.3 µM | 46.8% and 71.7% | –
13 | CCc1cc2c(N3CCN(C(=O)CC(F)(F)F)CC3)nc(NC(=O)NCCC(=O)O)nc2s1 [Example 49, N-[({6-Ethyl-4-[4-(3,3,3-trifluoropropanoyl)piperazin-1-yl]thieno[2,3-d]pyrimidin-2-yl}amino)carbonyl]-beta-alanine] | 88.9% | 0.449 µM and 0.308 µM and 0.254 µM | 0.234 µM and 0.168 µM and 0.14 µM | 94.4% and 92% | –
